Data published in US5270312A, “Substituted piperazines as central nervous system agents” (Warner-Lambert Company, priority 1991, dated 1993).

How the values were obtained:
[1] = tested on: locomotor activity in mice; assay: Inhibition of locomotor activity in mice; assay type: in vivo; details: Mus musculus, IP
Experimental: (§1) The compounds of Formula I are valuable dopaminergic agents. […] Thus, the compounds of Formula I were tested for their ability to inhibit locomotor activity in mice according to the assay described by J. R. McLean, et al, Pharmacology, Biochemistry and Behavior, Volume 8, pages 97-99 (1978); for their ability to inhibit [^3 H]-spiroperidol binding in a receptor assay described by D. Grigoriadis and P. Seeman, Journal of Neurochemistry, Volume 44, pages 1925-1935 (1985); and for their ability to inhibit dopamine synthesis in rats according to the protocol described by J. R. Walters and R. H. Roth, Naunyn-Schmiedeberg's Archives of Pharmacology, Volume 296, pages 5-14 (1976). The above test methods are incorporated herein by reference. The data in the table show the dopaminergic activity of representative compounds of Formula 1.

[2] = biological target: [^3 H]-spiroperidol binding (receptor assay); assay: Inhibition of [^3 H]spiroperidol binding, receptor assay
Experimental: as §1

[3] = tested on: brain dopamine synthesis in rats; assay: Reversal of brain dopamine synthesis in rats (inhibition of dopamine synthesis); assay type: in vivo; details: 10 mg/kg, IP
Experimental: as §1

Structure (SMILES)	IC50 [2]	ED50 [1]	% Reversal of Brain Dopamine Synthesis in Rats [3]
Fc1ccc(N2CCN(CCC#Cc3cccnc3)CC2)cc1 [Example 2, 1-(4-Fluorophenyl)-4-[4-(3-pyridinyl)-3-butynyl]-piperazine]	2.33 µM	4.7 mg/kg	20%
C(#Cc1cccnc1)CCN1CCN(c2ccccn2)CC1 [Example 3, 1-(2-Pyridinyl)-4-[4-(3-pyridinyl)-3-butynyl]-piperazine]	6.53 µM	2.2 mg/kg	–
O=[N+]([O-])c1ccc(C#CCCN2CCN(c3ccccn3)CC2)nc1 [Example 5, 1-[4-(5-Nitro-2-pyridinyl)-3-butynyl]-4-(2-pyridinyl)piperazine]	> 10 µM	14.1 mg/kg	–
O=[N+]([O-])c1ccc(C#CCCN2CCN(c3ccccn3)CC2)cc1 [Example 6, 1-[4-(4-Nitrophenyl)-3-butynyl]-4-(2-pyridinyl)-piperazine]	2.5 µM	7.7 mg/kg	–

These reach a lower IC50 [2]. Values come first.

IC50 [2]	Structure (SMILES)	ED50 [1]	% Reversal of Brain Dopamine Synthesis in Rats [3]
0.177 µM	C(#Cc1cnc2ccccc2c1)CCN1CCN(c2ccccn2)CC1 [Example 1, 3-[4-[4-(2-Pyridinyl)-1-piperazinyl]-1-butynyl]-quinoline]	1.5 mg/kg	–
1.9 µM	Nc1ccc(C#CCCN2CCN(c3ccccn3)CC2)nc1 [Example 7, 6-[4-[4-(2-Pyridinyl)-1-piperazinyl]-1-butynyl]-3-pyridinamine]	0.35 mg/kg	24%
0.611 µM	Nc1ccc(C#CCCN2CCN(c3ccccn3)CC2)cc1 [Example 8, 4-[4-[4-(2-Pyridinyl)-1-piperazinyl]-1-butynyl]-benzenamine]	0.56 mg/kg	63%
